Series [1] concerns PBPs.
Series [2] concerns E. coli MG1655. The series is described as follows: Phase-contrast imaging of treated cells. The conditions noted are these: Figure S5. The series is classed as cell-based.
The target of series [3] is T1, PBP4 (Escherichia coli, UniProt P24228). It counts as cell-based, Escherichia coli MG1655. The conditions noted are these: for Bocillin-FL labeling of PBP4 at high inhibitor concentration: 10 mM inhibitor, all three biological replicates.
The target of series [4] is PBP1a (Escherichia coli, UniProt P02918). The series is classed as cell-based, Escherichia coli MG1655.
The target of series [5] is PBP2 (Escherichia coli, UniProt P0AD65). It counts as cell-based, Escherichia coli MG1655.
Series [6] has as its target PBP3 (Escherichia coli, UniProt P0AD68). It counts as cell-based, Escherichia coli MG1655.
For series [7], the target named is PBP1b (Escherichia coli, UniProt P02919). The series is classed as cell-based, Escherichia coli MG1655.
Series [8] has as its target PBP7 (Escherichia coli, UniProt P0AFI5). The series is classed as cell-based, Escherichia coli MG1655.
Series [9] deals with PBP5/6. It counts as cell-based, Escherichia coli MG1655. The conditions noted are these: 10 mM inhibitor, all three biological replicates.
Series [10] addresses T1, PBP4. The series is described as follows: Meropenem titration against the PBPs in cell lysate. It counts as binding. The conditions noted are these: E. coli MG1655 lysate, in vitro (Figure S3).
The subject of series [11] is PBP4. The conditions noted are these: read-out: reported IC50 values PBP4; literature range; cited from earlier work.
The subject of series [12] is E. coli MG1655. The series is described as follows: Growth curve analysis of viability after permeabilization. Particulars: 200 μM in Tris for 30 min, then LB broth 37 °C, A600 over 18 h.
Setting [13] is: 10 mM inhibitor, all three biological replicates.

The text below walks through data of paper PMC10040144 (ACS infectious diseases, 2022).

In the case of `O=C(O)CN(CCN(CC(=O)O)CC(=O)O)CC(=O)O` [Tris-EDTA, ethylenediaminetetraacetic acid], in series [1] (cotreatment with 25 μM Bocillin-FL in 50 mM Tris-200 μM EDTA, 30 min), the “fold increases in PBP labeling in comparison to Tris alone” value is given as 1.2–5 fold. Further, the “fold increases in Bocillin-FL labeling in comparison to the original DC2 method” value in series [1] (vs 7.5 μM Bocillin-FL in PBS, 10 min) was 2 to 61 fold. Also, in [2], the “cell morphology by phase-contrast imaging” value is recorded as “little difference in the morphologies”.
With `NC(=O)[C@@H]1CC[C@@H]2CN1C(=O)N2OS(=O)(=O)O` [avibactam], the IC50 (commonly the concentration that gives 50% inhibition) was above 10000 µM in series [3]; above 10000 µM in series [4]; below 100 µM in series [5]; above 10000 µM in series [6]; 310 ± 460 µM in series [7].
With `C[C@H]1[C@H](NC(=O)/C(=N\OC(C)(C)C(=O)O)c2csc(N)n2)C(=O)N1S(=O)(=O)O` [aztreonam], the IC50 in [3] was above 10000 µM; in series [4], 970 ± 940 µM; in series [5], above 10000 µM; in series [7], 1.6 ± 0.9 µM. The “Bocillin-FL labeling of PBP4 at high inhibitor concentration” value in [3] is on record as “increased Bocillin-FL labeling”. Also, the “Bocillin-FL labeling of PBP2 at high inhibitor concentration” value in [5] (setting [13]) was “increased Bocillin-FL labeling”. Further, in series [8] (setting [13]), the “Bocillin-FL labeling of PBP7 at high inhibitor concentration” value is listed as “increased Bocillin-FL labeling”.
In the case of `N[C@@H](C(=O)N[C@@H]1C(=O)N2C(C(=O)O)=C(Cl)CS[C@H]12)c1ccccc1` [cefaclor], the IC50 in [3] was above 10000 µM; in series [4], above 10000 µM; in series [5], 360 ± 210 µM; in series [8], 86 ± 66 µM; in series [6] it was 15 ± 14 µM; in series [7], above 10000 µM. In addition, the “Bocillin-FL labeling of PBP5/6 at high inhibitor concentration” value in [9] is listed as “labeling was increased”.
As for `CO/N=C(\C(=O)N[C@@H]1C(=O)N2C(C(=O)[O-])=C(C[N+]3(C)CCCC3)CS[C@H]12)c1csc(N)n1` [cefepime], the IC50 is above 10000 µM in series [3]; 5.5 ± 2.6 µM in series [4]; 0.2 ± 0.1 µM in series [5]; below 0.0001 µM in series [6]; 2.6 ± 2.4 µM in series [7]. Besides, the “Bocillin-FL labeling of PBP4 at high inhibitor concentration” value in [3] is “increased Bocillin-FL labeling”. Moreover, the “Bocillin-FL labeling of PBP5/6 at high inhibitor concentration” value in [9] is “increased Bocillin-FL labeling”.
Consider `CO/N=C(\C(=O)N[C@@H]1C(=O)N2C(C(=O)O)=C(CSc3nc(=O)c(=O)[nH]n3C)CS[C@H]12)c1csc(N)n1` [ceftriaxone], for which the 50% inhibitory concentration (IC50) turned out to be 3 ± 8 µM in series [3]; 4.9 ± 2.2 µM in [4]; 1.5 ± 0.9 µM in series [5]; 9.5 ± 9.8 µM in series [8]; 0.2 ± 0.2 µM in series [7].
As for `CO/N=C(\C(=O)N[C@@H]1C(=O)N2C(C(=O)O)=C(COC(N)=O)CS[C@H]12)c1ccco1` [cefuroxime], the half-inhibitory concentration (IC50) in [3] stood at 24 ± 22 µM; in [4], 73 ± 42 µM; in [5], 91 ± 65 µM; in series [8], 25 ± 31 µM; in series [6], 0.02 ± 0.01 µM; in series [7], 1.6 ± 1.9 µM.
As for `CC1=C(C(=O)O)N2C(=O)[C@@H](NC(=O)[C@H](N)c3ccccc3)[C@H]2SC1` [cephalexin], the half-maximal inhibitory concentration (IC50) was 68 ± 79 µM in series [3], above 10000 µM in series [4], 200 ± 250 µM in series [8] and above 10000 µM in [7].
For `C[C@@H](O)[C@H]1C(=O)N2C(C(=O)O)=C([C@H]3CCCO3)S[C@H]12` [faropenem], the IC50 amounted to 2 ± 1.6 µM in series [3]; 6.4 ± 3.6 µM in series [4]; 0.04 ± 0.04 µM in series [5]; 1.2 ± 1.8 µM in series [8]; 0.4 ± 0.2 µM in series [7].
Consider `C[C@@H](O)[C@H]1C(=O)N2C(C(=O)O)=C(S[C@@H]3CN[C@H](C(=O)N(C)C)C3)[C@H](C)[C@H]12` [meropenem], for which, in series [10], the “PBP4 inhibition in lysate” value is “no PBP4 inhibition”. The IC50 is above 10000 µM in series [3]; 0.0001 to 0.01 µM in [11]; above 10000 µM in series [4]; 0.01 µM in series [5]; 110 ± 86 µM in series [7].
With `COc1cccc(OC)c1C(=O)N[C@@H]1C(=O)N2[C@@H]1SC(C)(C)[C@@H]2C(=O)O` [methicillin], the figures for the IC50 in series [3], in [4] and in series [8] were 87 ± 51 µM, above 10000 µM and 58 ± 70 µM, respectively.
`CC1(C)S[C@@H]2[C@H](NC(=O)Cc3ccccc3)C(=O)N2[C@H]1C(=O)O` [penicillin G]: the concentration for half-maximal inhibition (IC50) was 170 ± 93 µM in series [4], 65 ± 36 µM in series [5], 15 ± 9 µM in series [6] and 1.5 ± 0.7 µM in [7].
With `CCN1CCN(C(=O)N[C@@H](C(=O)N[C@@H]2C(=O)N3[C@@H]2SC(C)(C)[C@@H]3C(=O)O)c2ccccc2)C(=O)C1=O` [piperacillin], the IC50 amounted to 25 ± 24 µM in series [3]; 17 ± 15 µM in series [4]; 2.8 ± 2.8 µM in [5]; 2.3 ± 2.5 µM in [8]; 12 ± 7.4 µM in series [7].
In the case of colistin, the lag in growth in [12] is on record as ~ 10 h.
